Measured values taken from publication PMC9607599, “Dual Targeting Ligands—Histamine H3 Receptor Ligands with Monoamine Oxidase B Inhibitory Activity—In Vitro and In Vivo Evaluation” (Pharmaceutics, 2022).
“And” between values parts separate entries of the source, which are not always exact repeats. Identical values can stand only once. Like-named read-outs stand apart in the source and are kept apart here.

Experiments:
human MAO B (hMAO B) = target: T1, human MAO B (hMAO B) (Homo sapiens, UniProt P27338); experiment: modality of hMAO B inhibition (Michaelis-Menten / Lineweaver-Burk); assay type: biochemical
T1 sequence (P27338 1-520): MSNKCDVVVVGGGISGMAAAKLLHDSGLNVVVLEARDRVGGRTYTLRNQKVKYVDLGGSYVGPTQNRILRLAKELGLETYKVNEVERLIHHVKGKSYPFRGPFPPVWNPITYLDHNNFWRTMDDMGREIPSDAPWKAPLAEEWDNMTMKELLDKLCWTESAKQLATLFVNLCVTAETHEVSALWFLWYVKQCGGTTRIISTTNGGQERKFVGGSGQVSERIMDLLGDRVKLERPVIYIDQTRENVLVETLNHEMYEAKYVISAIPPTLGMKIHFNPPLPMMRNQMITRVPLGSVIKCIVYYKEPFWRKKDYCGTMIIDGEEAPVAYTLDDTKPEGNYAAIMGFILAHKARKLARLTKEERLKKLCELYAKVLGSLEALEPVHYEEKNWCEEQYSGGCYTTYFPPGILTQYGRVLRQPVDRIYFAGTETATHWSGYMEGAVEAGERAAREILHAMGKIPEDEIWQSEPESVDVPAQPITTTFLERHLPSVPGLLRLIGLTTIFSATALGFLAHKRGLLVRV
Method: Modality of hMAO B inhibition was evaluated for compounds 9 and 13 and the reference safinamide according to the method described previously. Three concentrations of inhibitors, corresponding to their IC20, IC50 and IC80 values, were used. Each experiment was performed in triplicate. KM and Vmax values were calculated from Michaelis–Menten curves by nonlinear regression from the substrate. Lineweaver–Burk plots were calculated using linear regression in GraphPad Prism 6.07 (GraphPad Software, San Diego, CA, USA).
For testing modality of enzyme inhibition, we used three concentrations of inhibitors that corresponded to their IC20, IC50 and IC80 values. Substrate (p-tyramine) was used at concentrations: 0.05, 0.1, 0.5, 1.0, 1.5 and 2.0 mM.

[1] = target: T2, MAO A in rat cerebral cortex (Rattus norvegicus, UniProt P21396); experiment: MAO A activity in cerebral cortex homogenates after sub-chronic administration (radioassay); assay type: in vivo; details: 3 mg/kg/day s.c. for 6 days
T2 construct: from tissue; host or cells: cerebral cortex homogenate of male Wistar rats
T2 sequence (P21396 1-526): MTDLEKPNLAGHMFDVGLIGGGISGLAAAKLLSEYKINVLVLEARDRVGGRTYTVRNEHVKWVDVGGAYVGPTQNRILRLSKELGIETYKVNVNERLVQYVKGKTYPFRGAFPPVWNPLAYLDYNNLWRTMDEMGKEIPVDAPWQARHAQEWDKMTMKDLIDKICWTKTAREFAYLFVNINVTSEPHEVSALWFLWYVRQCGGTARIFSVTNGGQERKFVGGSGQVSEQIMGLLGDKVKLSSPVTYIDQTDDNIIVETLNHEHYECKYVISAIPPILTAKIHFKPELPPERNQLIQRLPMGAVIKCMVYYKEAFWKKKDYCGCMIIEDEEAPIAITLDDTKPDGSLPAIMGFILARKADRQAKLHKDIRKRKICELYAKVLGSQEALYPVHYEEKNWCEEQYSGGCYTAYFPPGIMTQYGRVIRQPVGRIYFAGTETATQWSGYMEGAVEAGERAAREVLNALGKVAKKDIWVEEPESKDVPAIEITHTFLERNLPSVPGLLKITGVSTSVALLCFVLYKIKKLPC
Method: The compound 13 was given to intact Wistar rats to verify its impact on the metabolism of biogenic amines in the brain (cerebral amines and their metabolites concentrations as well as activities of metabolizing enzymes). […] Both drugs (3 mg/kg body mass, dissolved in 0.9% NaCl) were given subcutaneously for 6 consecutive days. Control rats were injected with 200 μL of 0.9% NaCl.
Tissues were collected and properly prepared for subsequent biochemical analyzes. The brain was quickly removed from the skull and the selected structures (hypothalamus, striatum, cerebral cortex) were dissected according to the method by Glowinsky and Iversen, immediately frozen in liquid nitrogen and kept at −80 °C until assayed.
MAO A and MAO B activities were estimated in cerebral homogenates with radioassays using 5-[2-^14C]-hydroxytryptamine binoxalate (final conc. 200 µM) and β-[ethyl-1-^14C]-phenylethylamine hydrochloride (final conc. 20 µM), as well as specific inhibitors—clorgyline and deprenyl (final conc. 10^−9 M), respectively.
The enzyme activities are expressed as pmol/min/mg protein. Protein concentration was analyzed by Lowry’s method.

[2] = test system: astrocyte cell line isolated from human cerebral cortex; experiment: MTT cell viability test on human astrocytes; assay type: cell-based; details: Astrocyte, human astrocytes, MTT
Method: The studies were performed on a commercially-available astrocyte cell line isolated from human cerebral cortex (ScienCell Research Laboratories, San Diego, CA, USA; Cat no. 1800). The cells (passage 7–8) were seeded into a 96-well plate at an amount of 10,000 cells/well and kept in accordance with the ScienCell Research Laboratories’ protocol, i.e., in astrocyte medium supplemented with 2% fetal bovine serum, 10% astrocyte growth supplement and 1% penicillin/streptomycin solution, in an atmosphere with 5% CO2 at 37 °C. The cells were allowed to grow for 24 h and then treated with increasing concentrations of test compounds (0.01–0.25 mg/mL) for 24 and 72 h. Astrocytes in the medium on each plate (regardless of the factors tested) were used as a positive control.
The viability of the astrocyte cell line was determined calorimetrically using 3-(4,5-dimethylthazol-2-yl)-2,5-diphenyltetrazolium bromide (MTT; Sigma-Aldrich Chemical Co. Ltd., Saint Louis, MO, USA) as described earlier. […] After the incubation time (24 or 72 h) with examined drugs, 50 μL MTT solution (1 mg/mL) was added to each well of the plate for another 4 h. The method is based on the reduction of a yellow tetrazolium salt (MTT) into purple formazan crystals by mitochondrial succinate-tetrazolium reductase system which is metabolically active in viable cells. At the end of the experiment, the cells were treated with 100 μL dimethyl sulphoxide, which enabled the release of the reaction product.
The absorbance was measured at 570 nm using a BioTek EL×800 microplate reader (BioTek, Winooski, Vermont, USA) and results were expressed as a percentage of the absorbance measured in control cells. The obtained values were plotted against different concentrations of each compound to calculate the viability inhibition concentration at 50% (IC50) using GraphPad Prism 6.07 (GraphPad Software, Inc., San Diego, CA, USA). The experiment was repeated in quadruplicate.
For the cytotoxicity assessment in the MTT assays, each test drug was used at 8 concentrations (range: 0.01–0.25 mg/mL).

[3] = parallel artificial membrane permeability assay (PAMPA); assay type: in vitro ADME
[4] = inhibitor at IC20, IC50, IC80, p-tyramine 0.05–2.0 mM
[5] = 24 h incubation, read-out: IC50 24 h
[6] = 72 h incubation, read-out: IC50 72 h

SMILES | Affinity (free enzyme vs enzyme-substrate complex) (human MAO B (hMAO B)) | Mode of inhibition from kinetic values and LB plot (human MAO B (hMAO B)) | Lines on LB plot (human MAO B (hMAO B); Lineweaver–Burk double-reciprocal plot) | app. KM (human MAO B (hMAO B); [4]) | app. Vmax (human MAO B (hMAO B); [4]) | app. Vmax/app. KM (human MAO B (hMAO B); [4]) | inhibition at 3 mg/kg ([1]; rat, sc, data not shown) | IC50 [2, 5] | IC50 [2, 6] | permeability in PAMPA, in words [3] | Pe (×10^−6cm/s) ± SD ([3]; PAMPA, triplicate, breakpoint for permeable compounds Pe ≥ 1.5×10^−6 cm/s) | Papp ([3]; PAMPA, triplicate, breakpoint for permeable compounds Pe ≥ 1.5×10^−6 cm/s, read-out: Pe ± SD) | MAO A activity vs control, in words [1]
CC1CCCN1CCCOc1ccc(C(C)(C)C)cc1.O=C(O)C(=O)O (stereo not drawn) [Compound 13, 1-(3-(4-(tert-Butyl)phenoxy)propyl)-2-methylpyrrolidine hydrogen oxalate] | Free enzyme ≈ enzyme-substrate complex | noncompetitive inhibition | Lines intersect to the left of y-axis directly on x-axis | No effect ^a | ↓ curvilinearly with ↑ [I] | ↓ curvilinearly with ↑ [I] | 12% | 230 µM and 84 µg/mL | 142 µM and 52 µg/mL | high permeability | 16.72 ×10^−6cm/s | 16.72 ± 0.06 ×10⁻⁶ cm/s | –
Clc1ccc(CCCOCCCN2CCCCC2)cc1 [Pitolisant, 3-(4-chlorophenyl)propyl 3-piperidinopropyl ether, reference compound] | – | – | – | – | – | – | – | 346 µM and 115 µg/mL | 241 µM and 80 µg/mL | – | – | – | close to that recorded in control animals
